This is an account of results in patent publication US20180116988A1, “METHODS OF PREVENTING AND TREATING AUTOIMMUNITY” (THE REGENTS OF THE UNIVERSITY OF COLORADO a body corporate, priority 2015, published 2018).

Like-named read-outs stand apart in the source and are kept apart here.

In data set [1] the target is T1, DQ8 (Homo sapiens, UniProt P01909+P01920, A209T/A45G/C70Q/D89A/E183D/E77G/F237L/G63E/H199R/I129T/K197E/L178F/L74F/L98V/N214S/Q57E/Q76R/S185I/S97I/T49S/V73L/Y58L).
T1 construct: endogenous in cells; host or cells: blood cells of DQ8-positive human T1D subjects treated with methyldopa
Kind of data set: DQ8-stimulated IL-2 T cell response in T1D patients treated with methyldopa (open label phase 1b dose escalation study). It is filed as in vivo. Particulars: for reduction in DQ8-stimulated IL-2 T cell response: DQ8 positive T1D subjects. From the text: (§1) Human leukocyte antigen (HLA) alleles confer significant genetic risk for type 1 diabetes (T1D) with recent studies implicating DQ8 in its pathogenesis, and DQ8 antigen presentation can be inhibited with methyldopa in animal models. In this pilot study, the inventors evaluated methyldopa treatment in 10 DQ8 positive human subjects with T1D, ages 18-46 years (mean 27) with less than 2 years of diabetes duration (mean 3 months). This was an open label phase 1b dose escalation study.

Details of data set [2]: species or system human. The settings on record: in vivo.
Excerpt: as §1

Data set [3] is described as follows: Glucose control in T1D patients treated with methyldopa over 3 months. Type of data set: in vivo, human.
Excerpt: as §1

Data set [4] has as its system DR4. Put plainly: DR4 T cell response in T1D patients treated with methyldopa. Type of data set: in vivo, human. Particulars: T1D subjects treated with varying doses of methyldopa.
Excerpt: as §1

T1 sequence (P01920 33-261 A45G/Y58L/E77G/D89A/H199R/N214S, other chains not shown): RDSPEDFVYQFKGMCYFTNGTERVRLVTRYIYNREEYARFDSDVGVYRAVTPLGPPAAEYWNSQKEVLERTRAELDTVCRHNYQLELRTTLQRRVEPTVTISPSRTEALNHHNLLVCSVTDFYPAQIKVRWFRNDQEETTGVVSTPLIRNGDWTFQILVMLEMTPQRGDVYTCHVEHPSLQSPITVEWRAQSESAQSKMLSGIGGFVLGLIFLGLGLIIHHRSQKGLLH

As to `C[C@](N)(Cc1ccc(O)c(O)c1)C(=O)O` [methyldopa, α-Methyl-3,4-dihydroxyphenylalanine], in data set [1] (6 weeks after stopping therapy), the “DQ8-stimulated IL-2 T cell response after stopping therapy” value was “returned to normal”. The reduction in DQ8-stimulated IL-2 T cell response in data set [1] (at 1 week of dose escalation) is 32%; in data set [1] (at 3 weeks of dose escalation) it was 39%. The subjects tolerating dosage in data set [2] (human) is on record as 9/10; in data set [2], “All subjects tolerated”. Moreover, in data set [2], the “serious adverse events (hypotension, DKA, or hypoglycemia)” value is given as “No serious adverse events”. Further, the glycemic control entry in data set [3] was “good glycemic control”. The “DR4 T cell responses” value in data set [4] was “minimally effected”.
